Each block holds one molecule with its values, some of them ahead of it.
Assays:
LuxAB luciferase = molecular target: T1, LuxAB luciferase (Aliivibrio fischeri, UniProt P19907); assay: […] min biotransformation with FMNH2 supplied by purified flavin reductases, GC; assay type: biochemical; conditions: FMNH2 cosubstrate generated in situ from FMN and NADH, 1 mM ketone, pH 7.6, 25 °C
T1 construct: gene luxA; natively purified LuxAB luciferase, untagged; with Alkanal monooxygenase beta chain
T1 sequence (P19907 1-354): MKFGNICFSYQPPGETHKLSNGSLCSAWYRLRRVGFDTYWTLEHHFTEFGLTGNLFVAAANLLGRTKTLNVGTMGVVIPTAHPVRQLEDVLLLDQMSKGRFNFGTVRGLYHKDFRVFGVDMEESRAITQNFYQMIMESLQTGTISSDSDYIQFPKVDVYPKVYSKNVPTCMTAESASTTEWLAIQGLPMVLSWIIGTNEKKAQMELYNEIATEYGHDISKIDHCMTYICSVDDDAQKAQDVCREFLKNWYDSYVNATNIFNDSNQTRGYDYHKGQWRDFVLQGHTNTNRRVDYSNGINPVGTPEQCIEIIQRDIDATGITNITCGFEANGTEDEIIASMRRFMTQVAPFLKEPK
T1 sequence (P19908 1-326 partner): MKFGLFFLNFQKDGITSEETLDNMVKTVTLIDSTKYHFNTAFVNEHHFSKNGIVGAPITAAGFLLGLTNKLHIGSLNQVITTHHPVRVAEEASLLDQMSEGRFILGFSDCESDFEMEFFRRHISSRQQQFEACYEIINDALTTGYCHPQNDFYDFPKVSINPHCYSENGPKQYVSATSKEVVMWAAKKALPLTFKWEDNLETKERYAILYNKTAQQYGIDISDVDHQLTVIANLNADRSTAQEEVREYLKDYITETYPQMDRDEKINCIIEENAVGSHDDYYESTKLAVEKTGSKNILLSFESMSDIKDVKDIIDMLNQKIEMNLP

3,6-DKCMO = molecular target: T2, 3,6-DKCMO (Pseudomonas putida, UniProt D7UER1); assay: as above; assay type: biochemical; conditions: FMNH2 cosubstrate generated in situ from FMN and NADH, 1 mM ketone, pH 7.6, 25 °C
T2 construct: gene camE36; natively purified biooxygenating subunit, untagged
T2 sequence (D7UER1 1-378): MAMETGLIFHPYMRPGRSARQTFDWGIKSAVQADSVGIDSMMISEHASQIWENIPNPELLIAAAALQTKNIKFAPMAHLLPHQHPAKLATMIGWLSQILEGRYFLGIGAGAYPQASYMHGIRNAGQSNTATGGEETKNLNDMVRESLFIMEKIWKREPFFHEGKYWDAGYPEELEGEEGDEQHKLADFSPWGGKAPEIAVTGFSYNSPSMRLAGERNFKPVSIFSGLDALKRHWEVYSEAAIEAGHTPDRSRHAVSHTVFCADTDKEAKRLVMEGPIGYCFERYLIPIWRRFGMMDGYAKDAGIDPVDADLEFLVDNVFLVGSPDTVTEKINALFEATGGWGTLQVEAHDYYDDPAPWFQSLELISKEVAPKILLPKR

Frp2 = assay: initial rate of FMN reduction by NADH at […] nm, single-enzyme, Michaelis-Menten; assay type: biochemical, Pseudomonas putida; conditions: co-substrate NADH, anaerobic; single-enzyme assay (S); read-out: Apparent KmFMN
Frp1 = assay: as above; assay type: biochemical, Pseudomonas putida; conditions: co-substrate NADH, anaerobic; single-enzyme assay (S); read-out: Apparent KmFMN
purified protein = substrate: Cc1cc2nc3c(=O)[nH]c(=O)nc-3n(C[C@H](O)[C@H](O)[C@H](O)COP(=O)(O)O)c2cc1C; assay: purified protein; assay type: biochemical, Aliivibrio fischeri; conditions: co-substrate NADH, anaerobic; single-enzyme assay (S)

Molecule: Cc1cc2c(cc1C)N(C[C@H](O)[C@H](O)[C@H](O)COP(=O)(O)O)c1[nH]c(=O)[nH]c(=O)c1N2 [FMNH2]
120 min biotransformation with FMNH2 supplied by purified flavin reductases, GC (LuxAB luciferase): can biooxygenate the bicyclic ketone by sourcing the requisite FMNH2 cosubstrate
120 min biotransformation with FMNH2 supplied by purified flavin reductases, GC (3,6-DKCMO): can biooxygenate the bicyclic ketone by sourcing the requisite FMNH2 cosubstrate

Km (Frp2): 4.2 µM
Km (Frp1): 2.5 µM
Molecule: Cc1cc2nc3c(=O)[nH]c(=O)nc-3n(C[C@H](O)[C@H](O)[C@H](O)COP(=O)(O)O)c2cc1C [FMN]

B1: FreVf (Aliivibrio fischeri) (protein)
chain: MPINCKVKSIEPLACNTFRILLHPEQPVAFKAGQYLTVVMGEKDKRPFSIASSPCRHEGEIELHIGAAEHNAYAGEVVESMKSALETGGDILIDAPHGEAWIREDSDRSMLLIAGGTGFSYVRSILDHCISQQIQKPIYLYWGGRDECQLYAKAELESIAQAHSHITFVPVVEKSEGWTGKTGNVLEAVKADFNSLADMDIYIAGRFEMAGAAREQFTTEKQAKKEQLFGDAFAFI
Km (purified protein): 2.5 µM

B2: FRGVf (Aliivibrio fischeri) (protein)
chain: THPIIHDLENRYTSKKYDPSKKVSQEDLAVLLEALRLSASSINSQPWKFIVIESDAAKQRMHDSFANMHQFNQPHIKACSHVILFANKLSYTRDDYDVVLSKAVADKRITEEQKEAAFASFKFVELNCDENGEHKAWTKPQAYLALGNALHTLARLNIDSTTMEGIDPELLSEIFADELKGYECHVALAIGYHHPSEDYNASLPKSRKAFEDVITIL
Km (purified protein): 4.3 µM
